{
  "source": "patent US20120122903A1",
  "about": "“1-H-QUINAZOLINE-2, 4-DIONES FOR USE IN THE TREATMENT OF NEURONAL CEROID LIPOFUSCINOSIS” (priority 2009, published 2012)",
  "key": {"OF1 mice": {"system": "OF1 mice", "assay": "Murine maximal electroshock test (MES test)", "format": "in vivo, mouse", "details": "p.o., percentage of protected mice, printed '@ 25' (mg/kg)"}, "mouse": {"system": "mouse", "assay": "Oral activity in vivo (audiogenic mouse test and/or MES test)", "details": "oral administration", "method": "The oral bioavailability was tested using the audiogenic mouse test (Audiogenic seizures, R. L. Collins; Chapter 14, pages: 347-372. In: Experimental Models of Epilepsy; By: Pupura, Penry, Tower, Woodbury, Waiter, Raven Press, New York, 1972. Standard Book Number: 0-911216-26-X) and/or the MES test."}},
  "data": [
    {"smiles": "CS(=O)(=O)Nn1c(=O)[nH]c2cc(C(F)(F)F)c(C3CCOC3)cc2c1=O", "note": "(centres unmarked) [Compound B-3, N-[2,4-Dioxo-6-(tetrahydro-furan-3-yl)-7-trifluoromethyl-1,4-dihydro-2H-quinazolin-3-yl]-methanesulfonamide]", "values": [
      {"measurement": "MES-Test (1 h, po) % protection @ 25", "setting": "OF1 mice", "result": 20, "unit": "% @ 25^3"},
      {"measurement": "In vivo orally active", "setting": "mouse", "result": "Yes"}
    ]}
  ]
}
